We go through three molecules from article PMC12334443, “Biochemical Characterization of a Novel, Glucose-Tolerant β-Glucosidase from Jiangella ureilytica KC603, and Determination of Resveratrol Production Capacity from Polydatin” (Applied Biochemistry and Biotechnology, 2025).

Type in all cases: biochemical
Experiment [1] concerns the target T1, JurBglKC603 (Jiangella ureilytica, UniProt A0A4R4RWQ6, T2A).
T1 construct: gene E1212_03180; catalytic Glu165 and Glu356
T1 sequence (A0A4R4RWQ6 1-457 T2A): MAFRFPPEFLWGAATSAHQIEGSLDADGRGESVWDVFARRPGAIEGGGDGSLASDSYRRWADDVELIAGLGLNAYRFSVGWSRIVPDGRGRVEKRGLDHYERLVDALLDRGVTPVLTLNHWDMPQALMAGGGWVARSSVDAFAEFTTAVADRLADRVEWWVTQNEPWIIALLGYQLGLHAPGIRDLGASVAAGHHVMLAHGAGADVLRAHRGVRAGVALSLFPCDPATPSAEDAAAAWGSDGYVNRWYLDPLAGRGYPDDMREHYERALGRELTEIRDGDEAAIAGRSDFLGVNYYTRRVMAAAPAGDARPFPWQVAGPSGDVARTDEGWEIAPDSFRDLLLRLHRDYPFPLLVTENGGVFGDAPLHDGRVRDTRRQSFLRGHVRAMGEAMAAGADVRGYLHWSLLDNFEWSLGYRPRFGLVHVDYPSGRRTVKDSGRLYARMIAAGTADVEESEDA
As to the kind of experiment: pNPG hydrolysis with added glucose, relative activity. The settings on record: 3 M; 4 mM pNPG, 50 mM sodium citrate pH 6, 35 °C; glucose is also the reaction product. From the text:
pNPG hydrolysis with added glucose, relative activity on JurBglKC603

Experiment [2] has as its target T1, JurBglKC603. Put plainly: pNP release at […] nm, Lineweaver-Burk. The settings on record: 50 mM sodium citrate pH 6, 35 °C; substrate 0.1-7 mM; read-out: Kinetic parameters / Km.
The target of experiment [3] is T1, JurBglKC603. Put plainly: glucose release by GOPOD assay, Lineweaver-Burk. As to conditions: 50 mM sodium citrate pH 6, 40 °C, 1 h; substrate 0.2-1 mM. From the text: glucose release by GOPOD assay, Lineweaver-Burk on JurBglKC603

The structures appear in SMILES notation.

In the case of `OC[C@H]1OC(O)[C@H](O)[C@@H](O)[C@@H]1O` (stereo partly drawn) [glucose], the Glucose tolerance at JurBglKC603 [1] came to 58%.

Regarding `O=[N+]([O-])c1ccc(O[C@@H]2O[C@H](CO)[C@@H](O)[C@H](O)[C@H]2O)cc1` [pNPG, para-nitrophenyl β-D-glucopyranoside], at JurBglKC603 [2], the Km was found to be 440 µM.

For `OC[C@H]1O[C@@H](Oc2cc(O)cc(/C=C/c3ccc(O)cc3)c2)[C@H](O)[C@@H](O)[C@@H]1O` [polydatin], the Km on JurBglKC603 [3] was determined as 4600 µM.
